Source: paper PMC9848300, “Discovery of novel enasidenib analogues targeting inhibition of mutant isocitrate dehydrogenase 2 as antileukaemic agents” (Journal of Enzyme Inhibition and Medicinal Chemistry, 2023)
Read-outs that look alike come from different tables or passages of the source.

What was measured:
Type in all cases: cell-based
T-47D = assay: NCI 60 antitumor screening (single dose / five doses); settings: Homo sapiens, T47D, read-out: Growth inhibition percentage (GI %)
786-0 = assay: as above; settings: Homo sapiens
MOLT-4 = assay: as above; settings: Homo sapiens
BT-549 = assay: as above; settings: Homo sapiens
HCT-15 = assay: as above; settings: Homo sapiens
NCI-H322M = assay: NCI 60 antitumor screening (single dose); settings: Homo sapiens; NCI-H322M (non-small cell lung cancer), single dose 10 μM; read-out: Growth inhibition percentage (GI %)
Method in brief: (§1)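 Percent growth inhibition, calculated as 100 minus percent growth (G%) of treated cells, following a single 10 μM exposure in the NCI 60 human cancer cell screen; triplicate runs.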

HOP-62 = assay: NCI 60 antitumor screening (single dose); settings: Homo sapiens; HOP-62 (non-small cell lung cancer), single dose 10 μM; read-out: Growth inhibition percentage (GI %)
Method in brief: (§2)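 Under the NCI Drug Evaluation Branch protocol, each compound is screened at one 10 μM concentration on the 60-line human tumour panel. Growth of treated cells is expressed as G%, and inhibition is reported as 100 − G%.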

SNB-19 = assay: NCI 60 antitumor screening (single dose); settings: Homo sapiens; SNB-19 (CNS cancer), single dose 10 μM; read-out: Growth inhibition percentage (GI %)
Method in brief: as §1

A549/ATCC = assay: NCI 60 antitumor screening (single dose); settings: Homo sapiens; A549/ATCC (non-small cell lung cancer), single dose 10 μM; read-out: Growth inhibition percentage (GI %)
Method in brief: as §1

OVCAR-3 = assay: NCI 60 antitumor screening (single dose); settings: Homo sapiens
Method in brief: as §1

SF-268 = assay: NCI 60 antitumor screening (single dose); settings: Homo sapiens; SF-268 (CNS cancer), single dose 10 μM; read-out: Growth inhibition percentage (GI %)
Method in brief: as §2

HCC-2998 = assay: NCI 60 antitumor screening (single dose); settings: Homo sapiens; HCC-2998 (colon cancer), single dose 10 μM; read-out: Growth inhibition percentage (GI %)
Method in brief: as §2

OVCAR-5 = assay: NCI 60 antitumor screening (single dose); settings: Homo sapiens
Method in brief: as §2

TK-10 = assay: NCI 60 antitumor screening (single dose); settings: Homo sapiens
Method in brief: as §1

KM 12 = assay: NCI 60 antitumor screening (single dose); settings: Homo sapiens, KM12; KM 12 (colon cancer), single dose 10 μM; read-out: Growth inhibition percentage (GI %)
Method in brief: as §1

OVCAR-8 = assay: NCI 60 antitumor screening (single dose); settings: Homo sapiens
Method in brief: as §1

MCF7 = assay: NCI 60 antitumor screening (single dose); settings: Homo sapiens
Method in brief: as §1

U251 = assay: NCI 60 antitumor screening (single dose); settings: Homo sapiens, U-251; U251 (CNS cancer), single dose 10 μM; read-out: Growth inhibition percentage (GI %)
Method in brief: as §2

M14 = assay: NCI 60 antitumor screening (single dose); settings: Homo sapiens
Method in brief: as §1

OVCAR-4 = assay: NCI 60 antitumor screening (single dose); settings: Homo sapiens
Method in brief: as §1

NCI-H23 = assay: NCI 60 antitumor screening (single dose); settings: Homo sapiens; NCI-H23 (non-small cell lung cancer), single dose 10 μM; read-out: Growth inhibition percentage (GI %)
Method in brief: as §2

CAKI-1 = assay: NCI 60 antitumor screening (single dose); settings: Homo sapiens
Method in brief: as §1

NCI-H522 = assay: NCI 60 antitumor screening (single dose); settings: Homo sapiens; NCI-H522 (non-small cell lung cancer), single dose 10 μM; read-out: Growth inhibition percentage (GI %)
Method in brief: as §2

NCI-H226 = assay: NCI 60 antitumor screening (single dose); settings: Homo sapiens; NCI-H226 (non-small cell lung cancer), single dose 10 μM; read-out: Growth inhibition percentage (GI %)
Method in brief: as §1

UO-31 = assay: NCI 60 antitumor screening (single dose / five doses); settings: Homo sapiens
RPMI-8226 = assay: as above; settings: Homo sapiens
HCT-116 = assay: as above; settings: Homo sapiens
[1] = T-47D (breast cancer), single dose 10 μM
[2] = 786-0, 786-0 (renal cancer), single dose 10 μM, read-out: Growth inhibition percentage (GI %)
[3] = MOLT-4 (leukaemia), single dose 10 μM, read-out: Growth inhibition percentage (GI %)
[4] = BT-549 (breast cancer), single dose 10 μM, read-out: Growth inhibition percentage (GI %)
[5] = HCT-15 (colon cancer), single dose 10 μM, read-out: Growth inhibition percentage (GI %)
[6] = OVCAR-3 (ovarian cancer), single dose 10 μM, read-out: Growth inhibition percentage (GI %)
[7] = OVCAR-5 (ovarian cancer), single dose 10 μM, read-out: Growth inhibition percentage (GI %)
[8] = TK-10 (renal cancer), single dose 10 μM, read-out: Growth inhibition percentage (GI %)
[9] = OVCAR-8 (ovarian cancer), single dose 10 μM, read-out: Growth inhibition percentage (GI %)
[10] = MCF7 (breast cancer), single dose 10 μM, read-out: Growth inhibition percentage (GI %)
[11] = M14 (melanoma), single dose 10 μM, read-out: Growth inhibition percentage (GI %)
[12] = OVCAR-4 (ovarian cancer), single dose 10 μM, read-out: Growth inhibition percentage (GI %)
[13] = CAKI-1 (renal cancer), single dose 10 μM, read-out: Growth inhibition percentage (GI %)
[14] = UO-31 (renal cancer), single dose 10 μM, read-out: Growth inhibition percentage (GI %)
[15] = RPMI-8226 (leukaemia), single dose 10 μM, read-out: Growth inhibition percentage (GI %)
[16] = HCT-116 (colon cancer), single dose 10 μM, read-out: Growth inhibition percentage (GI %)

| Structure (SMILES) | inhibition at 10 µM (T-47D; [1]) | inhibition at 10 µM (786-0; [2]) | inhibition at 10 µM (MOLT-4; [3]) | inhibition at 10 µM (BT-549; [4]) | inhibition at 10 µM (HCT-15; [5]) | inhibition at 10 µM (NCI-H322M) | inhibition at 10 µM (HOP-62) | inhibition at 10 µM (SNB-19) | inhibition at 10 µM (A549/ATCC) | inhibition at 10 µM (OVCAR-3; [6]) | inhibition at 10 µM (SF-268) | inhibition at 10 µM (HCC-2998) | inhibition at 10 µM (OVCAR-5; [7]) | inhibition at 10 µM (TK-10; [8]) | inhibition at 10 µM (KM 12) | inhibition at 10 µM (OVCAR-8; [9]) | inhibition at 10 µM (U251) | inhibition at 10 µM (NCI-H23) | inhibition at 10 µM (NCI-H522) | inhibition at 10 µM (NCI-H226) | further results |
| --- | --- | --- | --- | --- | --- | --- | --- | --- | --- | --- | --- | --- | --- | --- | --- | --- | --- | --- | --- | --- | --- |
| CN(C)c1ccc(/C=N/Nc2nc(N/N=C/c3ccc(N(C)C)cc3)nc(N3CCOCC3)n2)cc1 [compound 6g, 4-[(1e)-(2-{4-[(E)-2-{[4-(dimethylamino)phenyl]methylidene}hydrazin-1-yl]-6-(morpholin-4-yl)-1,3,5-triazin-2-yl}hydrazin-1-ylidene)methyl]-N,N-dimethylaniline] | 5.31% | 15.4% | 3.27% | -5.53% | 77.6% | -0.33% | -5.52% | 8.7% | 25.1% | -9.22% | 2.19% | -2.9% | -10.4% | -10.2% | -3.9% | 1.04% | 55.7% | 0.65% | 1.08% | 6.53% | inhibition at 10 µM (MCF7; [10]): 45.1%; inhibition at 10 µM (M14; [11]): -2.62%; inhibition at 10 µM (OVCAR-4; [12]): -3.79%; inhibition at 10 µM (CAKI-1; [13]): 4.03%; inhibition at 10 µM (UO-31; [14]): 9.35%; inhibition at 10 µM (RPMI-8226; [15]): 65%; inhibition at 10 µM (HCT-116; [16]): 64.3% |
| Clc1cccc(/C=N/Nc2nc(N/N=C/c3cccc(Cl)c3Cl)nc(N3CCOCC3)n2)c1Cl [compound 6h, 2,4-Bis[(E)-2-[(2,3-Dichlorophenyl)methylidene]hydrazin-1-yl]-6-(morpholin-4-yl)-1,3,5-triazine] | 44.7% | 1.86% | 16.1% | 0.16% | 15.2% | 11.9% | -3.7% | 12.3% | 3.4% | -2.72% | 13% | -6.13% | -10.2% | -29.2% | 8.19% | 44.6% | 21% | 25.5% | 21.4% | 14.6% | inhibition at 10 µM (MCF7; [10]): 25.1%; inhibition at 10 µM (M14; [11]): -4.08%; inhibition at 10 µM (OVCAR-4; [12]): 3.18%; inhibition at 10 µM (CAKI-1; [13]): -1.35%; inhibition at 10 µM (UO-31; [14]): 16.1%; inhibition at 10 µM (RPMI-8226; [15]): 12.1%; inhibition at 10 µM (HCT-116; [16]): 19.3% |
| O=[N+]([O-])c1cc(/C=N/Nc2nc(N/N=C/c3ccc(Cl)c([N+](=O)[O-])c3)nc(N3CCOCC3)n2)ccc1Cl [compound 6i, 2,4-Bis[(E)-2-[(4-Chloro-3-nitrophenyl)methylidene]hydrazin-1-yl]-6-(morpholin-4-yl)-1,3,5-triazine] |  |  |  |  |  | 2.28% | -5.02% | 0.85% | -8.71% |  | 0.39% | -5.78% |  |  | 6.79% |  | -5.95% | 3.66% | 0.32% | -3.53% | inhibition at 10 µM (T-47D): 0.85%; inhibition at 10 µM (786-0; 786-0, read-out: Growth inhibition percentage (GI %)): -8.76%; inhibition at 10 µM (MOLT-4; MOLT-4, read-out: Growth inhibition percentage (GI %)): 13.3%; inhibition at 10 µM (BT-549; BT-549, read-out: Growth inhibition percentage (GI %)): -0.85%; inhibition at 10 µM (HCT-15; HCT-15, read-out: Growth inhibition percentage (GI %)): 8.38%; inhibition at 10 µM (OVCAR-3; OVCAR-3, read-out: Growth inhibition percentage (GI %)): -10%; inhibition at 10 µM (OVCAR-5; OVCAR-5, read-out: Growth inhibition percentage (GI %)): -9.28%; inhibition at 10 µM (TK-10; TK-10, read-out: Growth inhibition percentage (GI %)): -24.4%; inhibition at 10 µM (OVCAR-8; OVCAR-8, read-out: Growth inhibition percentage (GI %)): 3.42%; inhibition at 10 µM (MCF7; MCF7, read-out: Growth inhibition percentage (GI %)): 56.7%; inhibition at 10 µM (M14; M14, read-out: Growth inhibition percentage (GI %)): -11.5%; inhibition at 10 µM (OVCAR-4; OVCAR-4, read-out: Growth inhibition percentage (GI %)): -12.5%; inhibition at 10 µM (CAKI-1; CAKI-1, read-out: Growth inhibition percentage (GI %)): -3.02%; inhibition at 10 µM (UO-31; UO-31, read-out: Growth inhibition percentage (GI %)): 22.3%; inhibition at 10 µM (RPMI-8226; RPMI-8226, read-out: Growth inhibition percentage (GI %)): 42.8%; inhibition at 10 µM (HCT-116; HCT-116, read-out: Growth inhibition percentage (GI %)): 7.64% |
| Oc1ccc(/C=N/Nc2nc(N/N=C/c3ccc(O)c(O)c3)nc(N3CCOCC3)n2)cc1O [compound 6j, 4-[(1e)-(2-{4-[(E)-2-[(3,4-Dihydroxyphenyl)methylidene]hydrazin-1-yl]-6-(morpholin-4-yl)-1,3,5-triazin-2-yl}hydrazin-1-ylidene)methyl]benzene-1,2-diol] | 7.67% | -3.75% | -1.68% | -9.12% | -2.93% | 9.4% | -5.33% | -4.37% | 1.02% | -4.79% | -2.53% | -6.4% | -3.8% | -9.62% | -1.91% | -0.99% | -3.1% | 0.57% | 3.1% | 1.59% | inhibition at 10 µM (MCF7; [10]): 5.79%; inhibition at 10 µM (M14; [11]): -4.69%; inhibition at 10 µM (OVCAR-4; [12]): -1.23%; inhibition at 10 µM (CAKI-1; [13]): 0.69%; inhibition at 10 µM (UO-31; [14]): 15.4%; inhibition at 10 µM (RPMI-8226; [15]): -3.09%; inhibition at 10 µM (HCT-116; [16]): -6.01% |
| C(=N\Nc1nc(N/N=C/c2ccc3c(c2)OCO3)nc(N2CCOCC2)n1)/c1ccc2c(c1)OCO2 [compound 6k, 2,4-Bis[(E)-2-(2H-1,3-Benzodioxol-5-ylmethylidene)hydrazin-1-yl]-6-(morpholin-4-yl)-1,3,5-triazine] | 23.8% | 36.6% | 47.3% | 5.57% | 41.5% | 11.8% | 13.6% | 5.57% | 17.7% | 6.73% | 8.94% | 8.26% | -1.78% | -3.24% | 17.4% | 26% | 24.1% | 17% | 12.5% | 22% | inhibition at 10 µM (MCF7; [10]): 30.9%; inhibition at 10 µM (M14; [11]): 5.09%; inhibition at 10 µM (OVCAR-4; [12]): 8.16%; inhibition at 10 µM (CAKI-1; [13]): 21.1%; inhibition at 10 µM (UO-31; [14]): 46.4%; inhibition at 10 µM (RPMI-8226; [15]): 40.3%; inhibition at 10 µM (HCT-116; [16]): 37.1% |
